Here are results for 2 molecules from EP0425968A2, “Novel multiple layer transdermal drug administration system” (G.D. Searle & Co., priority 1989, dated 1991).

SMILES strings stand for the structures.

For series [1] the following is noted: Figure 1; against prior art agents such as Azone® and isopropyl alcohol (IPA).
Series [2] in a line: Serum concentration time profile and pharmacokinetics after transdermal pad administration. As to conditions: rhesus monkey, read-out: AUC Area Under the Curve after transdermal administration. The class given is in vivo, rhesus monkeys. How it is done: Serum concentration time profiles after transdermal pad administration. After overnight fasting, on the day of the experiment, monkeys were restrained in chairs and the chest areas were clipped to remove hair, avoiding any injury to the skin tissue. Skin surface was wiped with isopropyl alcohol swab and a 4 square centimeter portion of the pad was then applied to the chest area for 24 hours and was removed as described previously. Following the pad application, blood samples were removed at 0.00, 0.5, 1.00, 1.50, 3.00, 5.00, 7.00, 12.00, 24.00, 31.00, and 48.00 hours, centrifuged to separate serum and stored at -20 °C till the analysis.
Analysis of serum samples. Serum albuterol and internal standard bamethan sulphate were extracted into chloroform to remove polar interfering substances and reextracted in to the aqueous phase to eliminate nonpolar materials. The aqueous extracts were analyzed by an HPLC-Fluorescence method.

A further series can be described thus: in vivo. Also noted: species or system rhesus monkeys. As to conditions: female, rhesus monkey, iv, 0.05 mg, AUC Area Under the Curve after intravenous administration. As for the experimental part: Serum concentration time profiles after intravenous administration: Four female rhesus monkeys, #388, #391, #423, and #430, were used in a cross over design for IV and pad bioavailability experiments. From each monkey, 7 ml of blood sample was removed on the previous day of the experiment, centrifuged to separate serum, and stored at -20°C till the analysis. This serum sample was used to make blanks and standards. […] The serum was separated from blood via centrifugation and stored at -20 °C till analysis.
Analysis of serum samples. […] The aqueous extracts were analyzed by an HPLC-Fluorescence method.

For series [3] the following is noted: use for preterm labor; cited from earlier work.

Regarding `CCO` [ethanol], in series [1], the “effect of adjuvant agent on the flux of albuterol” value is “most effective”.

In the case of `CC(C)(C)NCC(O)c1ccc(O)c(CO)c1` (stereo not shown) [albuterol], the AUC in series [2] (Monkey #423, Transdermal dose 0.77 mg.Kg⁻¹) worked out at 1.53 µg·h/mL; in series [2] (topical or ocular, Monkey #388, Transdermal dose 0.38 mg.Kg⁻¹), 0.712 µg·h/mL; in series [2] (topical or ocular, Monkey #391, Transdermal dose 0.39 mg.Kg⁻¹), 0.777 µg·h/mL; in series [2] (topical or ocular, Monkey #430, Transdermal dose 0.72 mg.Kg⁻¹), 1.26 µg·h/mL; in the series “in vivo”, 0.0707 µg·h/mL. The “plasma levels needed for uterine relaxation” value in series [3] is recorded as 8 to 33 nanograms per milliliter.
